# Measured values from US20260191853A1, “METHOD OF TREATING DRUG-INDUCED BRADYARRHYTHMIA” (OSAKA UNIVERSITY, priority 2022, published 2026).
# Legend:
# beagle dog = assay: Therapeutic effect on propranolol-induced bradycardia in conscious beagle dog; type: in vivo; details: compound (I) dihydrochloride 0.01, 0.1, 1 mg/kg bolus i.v., FIG. 9
# Experimental: A peripheral venous path was secured with an 18 G needle in the right forelimb of a beagle dog (body weight: about 10 kg, female, available from Oriental Yeast Co., Ltd.), and then held on an operating table. Heart rate was monitored with an electrocardiographic monitor worn on the animal. A manchette was worn on the left forelimb, and blood pressure was measured with an Omron automatic electronic sphygmomanometer. The left ventricular function was measured by the M-mode method using the echocardiographic left parasternal short-axis two-chamber view. After stabilization of the heart rate, propranolol (Inderal Injection, available from AstraZeneca K.K.) was administered by bolus intravenous injection at a dose of 2 mg/kg, followed by continuous intravenous injection at a dose of 1 mg/minute with a syringe pump. After the elapse of about 30 minutes, the stabilization of the heart rate was determined, and then saline and compound (I) dihydrochloride (0.01 mg/kg, 0.1 mg/kg, 1 mg/kg) were administered by bolus intravenous injection at 10-minute intervals. About 10 minutes after each administration, heart rate, blood pressure, and left ventricular function were measured and evaluated in a stable state. The solvent used was saline (available from Otsuka Pharmaceutical Factory, Inc.).
# Hartley guinea pigs = assay: Termination effect on fingolimod-induced bradyarrhythmia in isoflurane-anesthetized guinea pig model; type: in vivo
# From the text: Hartley guinea pigs (7 to 10 weeks old, male, available from Japan SLC, Inc.) were subjected to anesthetic induction by inhalation of isoflurane (available from Pfizer Japan Inc.), and each animal was held on an operating table having a heater function. The trachea was incised, and a tracheal cannula (KN-375, available from Natsume Seisakusho Co., Ltd.) was inserted. The tracheal cannula was connected to a ventilator (SN-480-7, available from Shinano Seisakusho Co., Ltd.), and artificial respiration was controlled by supplying 100% oxygen at a volume of 10 mL and a ventilation rate of 60 times/minute. Isoflurane (available from Pfizer Japan Inc.) anesthesia (about 1 to 4%, carrier gas: 100% oxygen) was used for maintenance of anesthesia. A catheter (BD intramedic polyethylene tubing PE50, available from Becton, Dickinson and Company) charged with 50 units/mL heparin (available from AY PHARMACEUTICALS CO., LTD.) was inserted into each of the carotid artery and the jugular vein and placed in the blood vessel. Systemic blood pressure was measured with a high-sensitivity DC amplifier (AD-611J, available from NIHON KOHDEN CORPORATION) via the catheter placed in the carotid artery. Electrodes were attached to the body surface, and a body surface electrocardiogram was measured with a high-sensitivity amplifier (AB-611J, available from NIHON KOHDEN CORPORATION). Blood pressure and electrocardiogram data were acquired and analyzed with PowerLab/Labchart system (available from ADInstruments). After stabilization of each parameter, fingolimod hydrochloride (available from Nissan Chemical Corporation) was continuously administered intravenously at 0.1 mg/kg for 10 minutes via the catheter placed in the jugular vein, followed by observation of the presence or absence of atrioventricular block. After confirmation that atrioventricular block continued for 10 minutes from the onset thereof, a solvent or compound (I) dihydrochloride was continuously administered intravenously at 0.1 mg/kg for 30 minutes, and the effect of terminating atrioventricular block was observed during the intravenous administration. The solvent used was saline (available from Otsuka Pharmaceutical Factory, Inc.). Data were recorded and blood was collected 10, 20, and 30 minutes after initiation of administration of compound (I) dihydrochloride and at the time of termination of atrioventricular block. The observation was terminated 30 minutes after initiation of the administration, and the animal was euthanized by exsanguination or intravenous administration of a large amount of saturated potassium chloride solution under isoflurane anesthesia. Data were analyzed for the presence or absence of the termination, the time required for the termination, and the plasma concentration of compound (I) at the time of termination. The plasma was collected by centrifuging the blood and cryopreserved at about −20° C. After thawing of the plasma, plasma drug concentrations were measured using LC/MS/MS after deproteinization with acetonitrile.
# In Table 1, the measurements are shown as mean±standard error.
smiles,measurement,setting,value
"Cc1cc(CO)nc2cc3c(cc12)OC(C)(C)[C@H](O)[C@H]3NCCc1ccccc1 [Compound (I), (3R,4S)-7-Hydroxymethyl-2,2,9-trimethyl-4-(phenethylamino)-3,4-dihydro-2H-pyrano[2,3-g]quinoline-3-ol]",effect on cardiac contraction inhibitory action of propranolol (left ventricular ejection fraction),beagle dog,did not affect
same,propranolol-induced bradycardia (heart rate),beagle dog; propranolol 2 mg/kg bolus then 1 mg/minute i.v.,improved bradycardia
same,fingolimod-induced bradyarrhythmia (atrioventricular block: A-V block) termination,Hartley guinea pigs; compound (I) dihydrochloride 0.1 mg/kg continuous i.v.,completely terminated
same,Number of cases where atrioventricular block was terminated,"Hartley guinea pigs; fingolimod-induced block, compound (I) dihydrochloride 0.1 mg/kg continuous i.v. for 30 minutes",5/5
same,Time required for the termination of atrioventricular block,"Hartley guinea pigs; fingolimod-induced block, compound (I) dihydrochloride 0.1 mg/kg continuous i.v. for 30 minutes, mean±standard error",750 ± 43 s
same,Compound (I) concentration at the time of termination,"Hartley guinea pigs; plasma, fingolimod-induced block, 0.1 mg/kg continuous i.v. for 30 minutes, mean±standard error",30.9 ± 1.9 ng/mL
